Source: patent US20240261224A1, “FORMULATION OF A PAN-JAK INHIBITOR” (KINASET THERAPEUTICS, INC., priority 2022, published 2024)

Legend:
JAK1 = JAK1 (Homo sapiens, UniProt P23458); details: cited from earlier work
[1] = APSD, MMAD, FPM and FPF determination (NGI, 90 L/min); type: physicochemical; details: for Fine particle mass (≤5 μm): in µg (unit assumed)
Method: Cup coating agent was prepared by mixing 150 mL of a mixture of Brij® 35, ethanol, and glycerol with 850 ml of ethanol.
The cup coating agent was prepared, and the NGI was assembled. The collection cups were then coated with cup coating agent and then proceeded to dry. A PALL® A/E 76 mm filter was placed into the back-up filter and attached to the NGI. Approximately 15 mL of diluent was added into the pre-separator insert. The flow rate was set to 90 L/min and the capsule was pierced. One dose was discharged into the NGI by initiating the time-controlled solenoid valve for 2.70 seconds. Sample diluent was added (10 mL for 0.2 mg and 2.0 mg doses and 20 mL for 4.0 mg doses), and the collection cups were agitated on the NGI Gentle Rocker for 10 minutes. The induction port was added 40 mL of sample diluent and was shaken for 1 minute. The pre-separator was added 50 mL of sample diluent and was shaken for 1 minute. The back-up filter was transferred to a crystallizing dish with 20 mL of sample diluent and was then sonicated for 5 minutes. The capsule from each determination was then transferred to a 20 mL volumetric flask and sample diluent was added. The suspension was then shaken and sonicated until fully dissolved. The resulting solution equilibrated under ambient conditions and was then made up to volume. Each Monodose RS01 was placed into an individual plastic bag and 20 mL of recovery solution was added. The bag was shaken by hand for 1 minute and filtered prior to HPLC analysis.

[2] = system: fractional exhaled nitric oxide (FeNO); experiment: Phase 1 Part 2: FeNO reduction in ICS-naïve mild asthmatics; type: in vivo, human; details: for Mean placebo-corrected FeNO reduction: mild asthma ICS naïve
Method: A status summary of the phase 1 clinical trial recruitment is shown below in Table 18. Capsules filled with blend 2a were used to achieve a 0.6 mg target dose of Compound I (0.2 mg capsules×3). Capsules filled with blend 4 were used to achieve 2.0 mg, 4.0 mg, 6.0 mg, 8.0 mg, and 12.0 mg target doses of Compound I (2.0 mg capsule×1; 4.0 mg capsule×1; 2.0 mg capsules×3; 4.0 mg capsules×2; and 4.0 mg capsules×3, respectively). Twice daily dosing (BID) was achieved by repeating the preceding regime. For example, an 8.0 mg BID dosing regime is achieved by administering two doses of 4.0 mg capsules×2.
Particular FeNO reduction data from FIG. 5 is highlighted below in Table 19. For comparison, it is established that FeNO reductions greater than 20% are clinically significant (Am. J. Respir. Crit. Care Med. 2011, 184, 602).
Day 10 pharmacokinetic parameters for Parts 2 and 3 of Phase I are summarized below in Table 28. Part 2 involved the administration of 4 different dose regimens, to subjects with mild asthma naïve to ICS therapy, over a 10-day period. Each separate cohort comprised 6 subjects receiving active treatment with 2 receiving matching placebo. Blood samples were collected to enable the measurement of Compound I concentrations in plasma. The resultant data was used to determine the PK parameters at Day 10 representing the Day on which the final dose was received.

[3] = Margin of safety study versus 13-wk rat NOAEL; type: in vivo
Description: Results from the margin of safety study of lactose/MgSt-based formulations of Compound I are shown below in Table 17.

JAK2 = JAK2 (Homo sapiens, UniProt O60674); details: cited from earlier work
Chain of JAK2 (O60674 whole entry): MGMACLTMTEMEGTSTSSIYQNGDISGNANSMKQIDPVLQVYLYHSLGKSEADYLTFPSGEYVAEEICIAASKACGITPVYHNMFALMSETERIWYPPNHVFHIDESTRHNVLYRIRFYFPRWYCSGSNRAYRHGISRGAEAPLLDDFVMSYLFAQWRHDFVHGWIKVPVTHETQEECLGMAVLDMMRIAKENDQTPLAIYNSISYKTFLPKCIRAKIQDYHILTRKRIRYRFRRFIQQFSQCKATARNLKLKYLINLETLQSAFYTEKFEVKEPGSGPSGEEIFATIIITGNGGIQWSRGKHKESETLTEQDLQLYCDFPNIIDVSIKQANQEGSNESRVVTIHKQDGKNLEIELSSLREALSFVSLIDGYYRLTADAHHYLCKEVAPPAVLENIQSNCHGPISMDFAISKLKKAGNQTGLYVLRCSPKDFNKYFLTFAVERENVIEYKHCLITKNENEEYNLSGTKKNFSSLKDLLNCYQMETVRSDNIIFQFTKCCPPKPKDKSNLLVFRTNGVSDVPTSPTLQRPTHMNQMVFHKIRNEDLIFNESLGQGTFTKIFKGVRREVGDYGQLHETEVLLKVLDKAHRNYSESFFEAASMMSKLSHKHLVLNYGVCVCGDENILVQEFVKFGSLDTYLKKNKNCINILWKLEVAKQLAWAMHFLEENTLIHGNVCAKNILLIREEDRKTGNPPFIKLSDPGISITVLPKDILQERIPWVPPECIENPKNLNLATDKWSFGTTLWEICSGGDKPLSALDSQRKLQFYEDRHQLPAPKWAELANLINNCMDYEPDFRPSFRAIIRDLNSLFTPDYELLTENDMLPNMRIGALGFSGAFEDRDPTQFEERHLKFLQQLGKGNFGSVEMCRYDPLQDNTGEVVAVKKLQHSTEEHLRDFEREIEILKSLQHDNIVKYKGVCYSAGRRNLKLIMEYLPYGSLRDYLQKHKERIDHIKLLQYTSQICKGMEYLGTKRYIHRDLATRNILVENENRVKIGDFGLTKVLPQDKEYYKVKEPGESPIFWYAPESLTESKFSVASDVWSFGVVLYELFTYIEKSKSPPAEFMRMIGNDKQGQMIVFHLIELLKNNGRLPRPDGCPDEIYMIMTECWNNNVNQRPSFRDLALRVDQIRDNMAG

[4] = 2.0 mg capsule, 12 months 30/65
[5] = 2.0 mg capsule, 18 months 30/65
[6] = 2.0 mg capsule, 24 months 30/65
[7] = 4.0 mg capsule, 12 months 30/65
[8] = 4.0 mg BID vs 13-week rat study

Chain of JAK1 (P23458 whole entry): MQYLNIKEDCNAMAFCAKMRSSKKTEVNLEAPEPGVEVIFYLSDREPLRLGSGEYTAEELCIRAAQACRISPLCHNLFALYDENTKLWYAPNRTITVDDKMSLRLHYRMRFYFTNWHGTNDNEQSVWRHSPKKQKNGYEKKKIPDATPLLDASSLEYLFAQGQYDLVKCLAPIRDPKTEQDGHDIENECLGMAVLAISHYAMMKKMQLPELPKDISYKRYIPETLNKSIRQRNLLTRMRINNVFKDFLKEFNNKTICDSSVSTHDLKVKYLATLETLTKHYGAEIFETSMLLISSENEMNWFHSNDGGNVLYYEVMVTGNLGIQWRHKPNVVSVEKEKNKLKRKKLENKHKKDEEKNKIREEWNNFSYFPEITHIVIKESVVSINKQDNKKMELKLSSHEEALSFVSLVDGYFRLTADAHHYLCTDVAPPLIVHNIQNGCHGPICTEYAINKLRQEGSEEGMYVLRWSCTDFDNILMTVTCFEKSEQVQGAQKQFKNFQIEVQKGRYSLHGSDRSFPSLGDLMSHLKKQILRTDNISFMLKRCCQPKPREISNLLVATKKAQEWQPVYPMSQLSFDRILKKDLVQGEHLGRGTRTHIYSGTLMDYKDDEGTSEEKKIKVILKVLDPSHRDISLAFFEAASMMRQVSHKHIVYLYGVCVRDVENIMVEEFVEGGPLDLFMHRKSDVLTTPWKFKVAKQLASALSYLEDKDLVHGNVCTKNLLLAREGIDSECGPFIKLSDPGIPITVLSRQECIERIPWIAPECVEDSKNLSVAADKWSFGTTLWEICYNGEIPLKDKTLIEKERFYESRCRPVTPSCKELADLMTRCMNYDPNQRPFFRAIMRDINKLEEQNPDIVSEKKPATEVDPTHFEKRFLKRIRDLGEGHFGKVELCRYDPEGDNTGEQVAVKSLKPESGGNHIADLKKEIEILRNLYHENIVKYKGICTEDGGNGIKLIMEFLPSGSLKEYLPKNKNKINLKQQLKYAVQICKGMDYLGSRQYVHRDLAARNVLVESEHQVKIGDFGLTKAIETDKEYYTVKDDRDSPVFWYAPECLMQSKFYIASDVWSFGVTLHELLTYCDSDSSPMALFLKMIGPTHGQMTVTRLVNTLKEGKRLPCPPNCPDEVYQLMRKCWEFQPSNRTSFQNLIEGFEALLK

## Cn1c(=O)n([C@H]2CCCN(C(=O)CC#N)C2)c2nc(-c3cnn4ccccc34)ccc21 [Compound I, (S)-3-(3-(1-methyl-2-oxo-5-(pyrazolo[1,5-a]pyridine-3-yl)-1H-imidazo[4,5-b]pyridine-3(2H)-yl)piperidin-1-yl)-3-oxopropanenitrile]
JAK1
  Inhibition of JAK1: potent inhibitor
[1]; 2.0 mg and 4.0 mg formulations aerosolized, Tables 11 and 12
  MMAD: 1.8-2.0 μm
[1]; 2.0 mg and 4.0 mg formulations, Tables 11 and 12, up to 24 months
  FPF: 73-78%
[1]; 2.0 mg capsule, 1 month 30/65
  FPF % (FPM/Impactor dose): 75.4%
  MMAD: 2.0 μm
  Fine particle mass (≤5 μm): 1143.6
[1]; 2.0 mg capsule, 1 month 40/75
  FPF % (FPM/Impactor dose): 75.9%
  MMAD: 1.9 μm
  Fine particle mass (≤5 μm): 1046.6
[1]; 2.0 mg capsule, 3 months 30/65
  FPF % (FPM/Impactor dose): 77.2%
  MMAD: 1.9 μm
  Fine particle mass (≤5 μm): 1096.5
[1]; 2.0 mg capsule, 3 months 40/75
  FPF % (FPM/Impactor dose): 77.2%
  MMAD: 1.8 μm
  Fine particle mass (≤5 μm): 1090.9
[1]; 2.0 mg capsule, 6 months 30/65
  FPF % (FPM/Impactor dose): 74.9%
  MMAD: 1.9 μm
  Fine particle mass (≤5 μm): 1074.3
[1]; 2.0 mg capsule, 6 months 40/75
  FPF % (FPM/Impactor dose): 74.7%
  MMAD: 1.9 μm
  Fine particle mass (≤5 μm): 1069.6
[1]; 2.0 mg capsule, 9 months 30/65
  FPF % (FPM/Impactor dose): 76.6%
  MMAD: 1.9 μm
  Fine particle mass (≤5 μm): 1075.9
[1]; [4]
  FPF % (FPM/Impactor dose): 77.3%
  MMAD: 1.9 μm
  Fine particle mass (≤5 μm): 1098.4
[1]; [5]
  FPF % (FPM/Impactor dose): 77.0%
  MMAD: 1.9 μm
  Fine particle mass (≤5 μm): 1162.7
[1]; [6]
  FPF % (FPM/Impactor dose): 78.0%
  MMAD: 2.0 μm
  Fine particle mass (≤5 μm): 1083.1
[1]; 2.0 mg capsule, Release
  FPF % (FPM/Impactor dose): 73.5%
  MMAD: 2.0 μm
  Fine particle mass (≤5 μm): 1006.7
[1]; 4.0 mg capsule, 1 month 30/65
  FPF % (FPM/Impactor dose): 75.1%
  MMAD: 1.8 μm
  Fine particle mass (≤5 μm): 2181.6
[1]; 4.0 mg capsule, 1 month 40/75
  FPF % (FPM/Impactor dose): 73.6%
  MMAD: 1.9 μm
  Fine particle mass (≤5 μm): 2130.4
[1]; 4.0 mg capsule, 3 months 30/65
  FPF % (FPM/Impactor dose): 75.4%
  MMAD: 1.8 μm
  Fine particle mass (≤5 μm): 2167.8
[1]; 4.0 mg capsule, 3 months 40/75
  FPF % (FPM/Impactor dose): 72.9%
  MMAD: 1.9 μm
  Fine particle mass (≤5 μm): 2059.2
[1]; 4.0 mg capsule, 6 months 30/65
  FPF % (FPM/Impactor dose): 73.6%
  MMAD: 1.9 μm
  Fine particle mass (≤5 μm): 2098.3
[1]; 4.0 mg capsule, 6 months 40/75
  FPF % (FPM/Impactor dose): 74%
  MMAD: 1.8 μm
  Fine particle mass (≤5 μm): 2090
[1]; 4.0 mg capsule, 9 months 30/65
  FPF % (FPM/Impactor dose): 74%
  MMAD: 1.8 μm
  Fine particle mass (≤5 μm): 2116.2
[1]; [7]
  FPF % (FPM/Impactor dose): 76.5%
  MMAD: 1.9 μm
  Fine particle mass (≤5 μm): 2182.2
[1]; 4.0 mg capsule, 18 months
  FPF % (FPM/Impactor dose): 75.4%
  MMAD: 1.9 μm
  Fine particle mass (≤5 μm): 2254.8
[1]; 4.0 mg capsule, 24 months
  FPF % (FPM/Impactor dose): 76.7%
  MMAD: 1.9 μm
  Fine particle mass (≤5 μm): 2201.8
[1]; 4.0 mg capsule, Release
  FPF % (FPM/Impactor dose): 75.3%
  MMAD: 1.9 μm
  Fine particle mass (≤5 μm): 2157.0
[2]; 0.6 mg QD
  Pharmacological activity of dose regimen (FeNO): minimally active dose
[2]; 0.6 mg QD (n = 6)
  % subjects reporting Day 10 FeNO value <25 ppb: 16%
[2]; 0.6 mg QD (n = 6), Day 10 + 3 hrs
  Mean placebo-corrected % FeNO reduction from day 1 pre-dose in ICS naïve mild asthmatics: −5.4%
[2]; 0.6 mg QD (n = 6), Day 10 + 6 hrs
  Mean placebo-corrected % FeNO reduction from day 1 pre-dose in ICS naïve mild asthmatics: −6.7%
[2]; 0.6 mg QD, 3 capsules per dose
  Mean placebo-corrected FeNO reduction: −7%
[2]; 0.6 mg QD, Day 1 pre-dose to Day 10
  Mean placebo-corrected FeNO changes: < 20%
[2]; 2.0 mg QD (n = 6)
  % subjects reporting Day 10 FeNO value <25 ppb: 16%
[2]; 2.0 mg QD (n = 6), Day 10 + 3 hrs
  Mean placebo-corrected % FeNO reduction from day 1 pre-dose in ICS naïve mild asthmatics: −26.6%
[2]; 2.0 mg QD (n = 6), Day 10 + 6 hrs
  Mean placebo-corrected % FeNO reduction from day 1 pre-dose in ICS naïve mild asthmatics: −24.0%
[2]; 2.0 mg QD, 1 capsule per dose
  Mean placebo-corrected FeNO reduction: −24%
[2]; 4.0 mg BID (n = 6)
  % subjects reporting Day 10 FeNO value <25 ppb: 67%
[2]; 4.0 mg BID (n = 6), Day 10 + 3 hrs
  Mean placebo-corrected % FeNO reduction from day 1 pre-dose in ICS naïve mild asthmatics: −29.1%
[2]; 4.0 mg BID (n = 6), Day 10 + 6 hrs
  Mean placebo-corrected % FeNO reduction from day 1 pre-dose in ICS naïve mild asthmatics: −30.6%
[2]; 4.0 mg BID, 1 capsule per dose
  Mean placebo-corrected FeNO reduction: −26%
[2]; 4.0 mg BID, Day 10 + 3 hours
  Mean placebo-corrected % FeNO reduction from Day 1 pre-dose: 29.1%
[2]; 4.0 mg BID, Day 10 + 6 hours
  Mean placebo-corrected % FeNO reduction from Day 1 pre-dose: 30.6%
[2]; 8.0 mg BID (n = 6)
  % subjects reporting Day 10 FeNO value <25 ppb: 50%
[2]; 8.0 mg BID (n = 6), Day 10 + 3 hrs
  Mean placebo-corrected % FeNO reduction from day 1 pre-dose in ICS naïve mild asthmatics: −29.1%
[2]; 8.0 mg BID (n = 6), Day 10 + 6 hrs
  Mean placebo-corrected % FeNO reduction from day 1 pre-dose in ICS naïve mild asthmatics: −25.9%
[2]; dose regimens from 2 mg QD to 8 mg BID
  Pharmacological activity of dose regimens (FeNO): pharmacologically active
[3]; [8]
  MoS versus inhalation toxicology study NOAELs, Lung exposure (mg/g lung): 3925
  MoS versus inhalation toxicology study NOAELs, Plasma (group mean AUC0-24): 85.6
[3]; 4.0 mg BID vs 13-wk rat NOAEL
  Group mean AUC0-24 MoS (Phase 1 clinical study versus inhalation tox study NOAELs): 5.6
[3]; 4.0 mg BID vs 13-wk rat NOAEL, adjusted for respirability assuming 10%, 25% and 100% lung deposition in rat, NHP and human
  Lung dose of Compound I (mg/g) MoS: 25
JAK2
  Inhibition of JAK2: potent inhibitor
